This note sets out measurements from ChEMBL document CHEMBL1137137, “A novel series of 2-pyridyl-containing compounds as lysophosphatidic acid receptor antagonists: development of a nonhydrolyzable LPA3 receptor-selective antagonist” (Bioorg Med Chem Lett, 2004).

Structures are written as SMILES.

The target of assay [1] is T1, Lysophosphatidic acid receptor 3 (Homo sapiens, UniProt Q9UBY5).
T1 sequence (Q9UBY5 whole entry): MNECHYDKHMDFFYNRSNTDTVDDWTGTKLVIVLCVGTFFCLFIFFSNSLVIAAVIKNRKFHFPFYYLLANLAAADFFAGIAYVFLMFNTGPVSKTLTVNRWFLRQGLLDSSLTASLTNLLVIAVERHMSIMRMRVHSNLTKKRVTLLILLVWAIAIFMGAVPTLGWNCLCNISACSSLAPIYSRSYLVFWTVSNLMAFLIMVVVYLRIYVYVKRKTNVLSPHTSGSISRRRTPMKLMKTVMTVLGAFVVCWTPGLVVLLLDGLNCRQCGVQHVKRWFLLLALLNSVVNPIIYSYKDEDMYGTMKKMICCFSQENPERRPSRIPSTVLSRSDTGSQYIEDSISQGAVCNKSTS
The experiment in a line: Antagonist activity at Lysophosphatidic acid 3 (LPA3) receptor.

In assay [2] the target is T2, Lysophosphatidic acid receptor 1 (Homo sapiens, UniProt Q92633). The experiment in a line: Inhibitory concentration against Lysophosphatidic acid 1 (LPA1) receptor.
The target in assay [3] is T2, Lysophosphatidic acid receptor 1. The assay is described as follows: Binding affinity towards Lysophosphatidic acid 1 (LPA1) receptor.

T2 sequence (Q92633 whole entry): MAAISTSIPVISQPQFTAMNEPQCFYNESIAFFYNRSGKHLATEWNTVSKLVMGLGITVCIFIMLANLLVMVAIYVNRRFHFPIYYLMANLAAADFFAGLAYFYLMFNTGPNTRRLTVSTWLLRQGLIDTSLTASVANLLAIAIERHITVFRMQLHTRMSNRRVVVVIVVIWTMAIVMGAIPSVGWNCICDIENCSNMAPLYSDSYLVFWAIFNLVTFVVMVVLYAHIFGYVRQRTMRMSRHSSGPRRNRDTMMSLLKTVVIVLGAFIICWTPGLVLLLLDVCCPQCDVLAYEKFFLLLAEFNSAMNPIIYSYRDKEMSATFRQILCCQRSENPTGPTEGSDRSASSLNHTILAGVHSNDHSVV

On to `CCCCCCCC/C=C\CCCCCCCC(=O)N[C@@H](Cc1ccc(OCc2ccccc2)cc1)CC(O)P(=O)(O)O` (stereo partly specified), for which the IC50 worked out at 232 nM in assay [1] and 4230 nM in assay [2].
Taken in the same sequence, the figures for `CCCCCCCC/C=C\CCCCCCCC(=O)N[C@H](CCP(=O)(O)O)Cc1ccc(OCc2ccccn2)cc1` were greater than 10000 nM and greater than 10000 nM.
Taken in the same sequence, the figures for `CCCCCCCC/C=C\CCCCCCCC(=O)N[C@H](COP(=O)(O)O)Cc1ccc(OCc2ncc(C)c(OC)c2C)cc1` were 561 nM and 3690 nM.
Taken in the same sequence, the figures for `CCCCCCCC/C=C\CCCCCCCC(=O)N[C@@H](CCP(=O)(O)O)Cc1ccc(OCc2ccccn2)cc1` were greater than 10000 nM and greater than 10000 nM.
For `CCCCCCCC/C=C\CCCCCCCC(=O)N[C@H](COP(=O)(O)O)Cc1ccc(OCc2cc(OC)c3ccccc3n2)cc1`, the IC50 in assay [1] is 2600 nM; in assay [2], greater than 10000 nM.
For the molecule `CCCCCCCC/C=C\CCCCCCCC(=O)N[C@@H](COP(=O)(O)O)Cc1ccc(OCc2cc(OCCOC)ccn2)cc1`, the half-maximal inhibitory concentration (IC50) in assay [1] was 423 nM; in assay [2], 114 nM. Besides, the Ki in assay [3] was 35 nM.
As to `CCCCCCCC/C=C\CCCCCCCC(=O)N[C@@H](CCP(=O)(O)O)Cc1ccc(OCc2ncc(C)c(OC)c2C)cc1`, the values for the IC50 in assay [1] and in assay [2] were 150 nM and greater than 10000 nM, respectively.
As for `CCCCCCCC/C=C\CCCCCCCC(=O)N[C@@H](COP(=O)(O)O)Cc1ccc(OCc2cc(OCC)ccn2)cc1`, the results for the IC50 in assay [1] and in assay [2] were 39 nM and 143 nM, respectively. In assay [3], this molecule displayed a Ki of 26 nM.
With `CCCCCCCC/C=C\CCCCCCCC(=O)N[C@@H](COP(=O)(O)O)Cc1ccc(OCc2cc(OCC(F)(F)F)ccn2)cc1`, the IC50 in assay [1] was 48 nM; in assay [2], 84 nM. Also, the affinity in assay [3], expressed as Ki, was 19 nM.
As for `CCCCCCCC/C=C\CCCCCCCC(=O)N[C@@H](COP(=O)(O)O)Cc1ccc(OCc2cccnc2)cc1`, the values for the IC50 in assay [1] and in assay [2] were 1690 nM and 992 nM, respectively.
Take `CCCCCCCC/C=C\CCCCCCCC(=O)N[C@@H](COP(=O)(O)O)Cc1ccc(OCc2cccc(OC)n2)cc1`: the IC50 in assay [1] was determined as 455 nM; in assay [2], 2840 nM.
`CCCCCCCC/C=C\CCCCCCCC(=O)N[C@@H](COP(=O)(O)O)Cc1ccc(OCc2cc(OC)ccn2)cc1`: the IC50 in assay [1] was found to be 102 nM; in assay [2] it was 6250 nM.
Regarding `CCCCCCCC/C=C\CCCCCCCC(=O)N[C@@H](COP(=O)(O)O)Cc1ccc(OCc2cc(OCCC)ccn2)cc1`, the figures for the IC50 in assay [1] and in assay [2] were 1660 nM and 141 nM, respectively. The molecule further showed a Ki in assay [3] of 64 nM.
`CCCCCCCC/C=C\CCCCCCCC(=O)N[C@H](COP(=O)(O)O)Cc1ccc(OCc2ccccn2)cc1` showed an IC50 in assay [1] of 940 nM.
As to `CCCCCCCCCCCCCCCC(=O)N[C@H](CCP(=O)(O)O)Cc1ccc(OCc2ccccn2)cc1`, the IC50 in assay [1] is 1050 nM; in assay [2] it was greater than 10000 nM.
For the molecule `CCCCCCCC/C=C\CCCCCCCC(=O)N[C@@H](COP(=O)(O)O)Cc1ccc(OCc2ccc3ccccc3n2)cc1`, the IC50 in assay [1] was 533 nM; in assay [2], 1430 nM.
As for `CCCCCCCC/C=C\CCCCCCCC(=O)N[C@H](COP(=O)(O)O)Cc1ccc(OCc2ccncc2)cc1`, the IC50 is 6960 nM in assay [1] and greater than 10000 nM in assay [2].
The like results for `CCCCCCCC/C=C\CCCCCCCC(=O)N[C@@H](COP(=O)(O)O)Cc1ccc(OCc2ccncc2)cc1` were, in that order, 2080 nM and 735 nM.
The like results for `CCCCCCCC/C=C\CCCCCCCC(=O)N[C@H](COP(=O)(O)O)Cc1ccc(OCc2cccnc2)cc1` were, in that order, 6240 nM and 4500 nM.
On to `CCCCCCCC/C=C\CCCCCCCC(=O)N[C@@H](COP(=O)(O)O)Cc1ccc(OCc2cc(OC)c3ccccc3n2)cc1`, for which the IC50 in assay [1] came to 1160 nM; in assay [2], 962 nM.
Regarding `CCCCCCCC/C=C\CCCCCCCC(=O)N[C@@H](COP(=O)(O)O)Cc1ccc(OCc2ncc(C)c(OC)c2C)cc1`, the IC50 in assay [1] was 39 nM; in assay [2] it was 62 nM. In assay [3], this molecule yielded a Ki of 28 nM.
Consider `CCCCCCCC/C=C\CCCCCCCC(=O)N[C@H](CCP(=O)(O)O)Cc1ccc(OCc2ncc(C)c(OC)c2C)cc1`, for which the IC50 in assay [1] is 4000 nM; in assay [2], greater than 10000 nM.
In assay [1], `CCCCCCCC/C=C\CCCCCCCC(=O)N[C@@H](COP(=O)(O)O)Cc1ccc(OCc2ccccn2)cc1` registered an IC50 of 175 nM.
For the molecule `CCCCCCCC/C=C\CCCCCCCC(=O)N[C@H](COP(=O)(O)O)Cc1ccc(OCc2cccc(OC)n2)cc1`, the figures for the IC50 in assay [1] and in assay [2] were 1090 nM and greater than 10000 nM, respectively.

As usually defined, the IC50 is the concentration needed to halve the response being measured. Read a high IC50 as lower potency. As a reminder, the Ki is a dissociation constant, usually derived from enzyme kinetics or from competition with a known ligand. Read a high Ki as a looser hold on the target.
